Reference: patent US10000437B2, “Nitrogen containing surfactants with alkoxylation on the hydroxyl group of fatty chains” (Akzo Nobel Chemicals International B.V., priority 2013, dated 2018)

Legend:
Assay type in all cases: in vivo
wheat [1] = test: Greenhouse trial: bioefficacy enhancing effect of surfactants on glyphosate, wheat (Example 23); details: 300 g ae/HA IPA-glyphosate sprayed on wheat; 360 g/L IPA formulation with 10% active surfactant; 4 weeks after treatment; from fresh weight
Method: (§1) A greenhouse trial was conducted by spraying solutions of 300 g ae/HA of IPA-glyphosate on wheat. The glyphosate formulation was based on 360 g/L IPA containing 10% active surfactant. Wheat was used as the “weed” because it germinates smoothly and it is a good species for herbicide study. The untreated check (UTC) was sprayed with only water. Pot 150 was sprayed with glyphosate only solution. Pot 149 was sprayed with glyphosate solution containing tallowamine-15EO (TAE15). TAE15 is the most common surfactant used to enhance glyphosate efficacy.
Plants were sprayed with glyphosate solutions containing surfactant according to the present invention. Table below lists the various surfactants and their corresponding pots. Percent growth control data for 4 weeks after treatment is also shown in this table as well. Percent growth control data was obtained from the fresh weight of these plants. The data clearly indicates glyphosate solutions containing surfactant according to the present invention provides better growth control than glyphosate only, thus acting as an adjuvant. In many cases the adjuvancy is equal to that of TAE15.

wheat [2] = test: Greenhouse trial: hydroxylated soybean oil derivatives with glyphosate, wheat, visual inspection (Example 24); details: 300 g ae/HA IPA-glyphosate sprayed on wheat, 10% active surfactant, 4 weeks after treatment
Method: as §1
A separate set of test was conducted for these surfactants. The condition and treatment of example 24 was identical to example 23. […] In this case % growth control is a qualitative data obtained by visual inspection of the plants. The data clearly indicates glyphosate solutions containing surfactant according to the present invention provides enhanced growth control than glyphosate only, thus acting as an adjuvant.

morning glory = test: Greenhouse trial: castor oil ethoxylate derivatives with glyphosate, morning glory (Example 25); details: 300 g ae/HA glyphosate; 4 weeks after treatment; ranking from picture
Method: as §1
The condition and treatment of example 25 was identical to example 23 except that example 25 used morning glory instead of wheat.

CC(C)N.O=C(O)CNCP(=O)(O)O [IPA Glyphosate alone, IPA-glyphosate]
% Growth Control (wheat [1]): 66%
% Growth Control (qualitative) (wheat [2]): 55%
morningglory control compared with tallowamine-15EO (morning glory): didn't show much control
